Experimental findings from ChEMBL document CHEMBL5356956, “Optimizing and characterizing 4-methyl substituted pyrazol-3-carboxamides leading to the peripheral cannabinoid 1 receptor inverse agonist TM38837” (Bioorg Med Chem Lett, 2024) are described below.

Structures are written as SMILES. In brackets after ≈: the same amount, converted by molar mass.

Data set [1] in a line: Lipophilicity, logD of compound by chromatographic analysis. It counts as physicochemical.
Data set [2] is described as follows: Clearance in rat hepatocytes assessed per million cells. Type of data set: ADME, cell-based, Hepatocyte.
A further data set has as its target CYP2C9 (Homo sapiens, UniProt P11712). As to the kind of experiment: Inhibition of CYP2C9 (unknown origin) at 10 uM relative to control. It counts as ADME.
Data set [3] can be described thus: Subchronic toxicity in DIO mouse assessed as reduction in body weight at 10 mg/kg, po measured after 7 days. It counts as organism-based. Also on record: scale not given: the % may be the effect or the level left. The following applies: in vivo, 168 h, time 7 day.
Data set [4] concerns the target T1, Cannabinoid receptor 1 (Homo sapiens, UniProt P21554). Kind of data set: Inverse agonist activity at human CB1 receptor expressed in African green monkey COS7 cells co-expressing G-protein in presence of CP55940 by IP3 assay. It counts as functional, cell membranes, Membrane.
The target of data set [5] is T1, Cannabinoid receptor 1. As to the kind of experiment: Inverse agonist activity at human CB1 receptor expressed in CHO-K1 cell membrane by GTP-gamma-S assay. Type of data set: functional, cell membranes.
The nature of data set [6]: Solubility of compound. It counts as physicochemical.
The target of data set [7] is T1, Cannabinoid receptor 1. Kind of data set: Antagonist activity at human CB1 receptor expressed in CHO-K1 cell membrane in presence of CP55940 by GTP-gamma-S assay. It counts as functional, cell membranes.
Data set [8] is described as follows: Drug concentration in DIO mouse liver at 10 mg/kg, po measured for 6 hrs. Type of data set: ADME, organism-based. The following applies: read-out: Drug uptake.
The next data set concerns the target Cannabinoid receptor 2 (Homo sapiens, UniProt P34972). As to the kind of experiment: Inverse agonist activity at human CB2 receptor expressed in CHO-K1 cell membrane in presence of CP55940 by GTP-gamma-S assay. It counts as functional, cell membranes.
Data set [9] is described as follows: Drug concentration in DIO mouse plasma at 10 mg/kg, po measured for 6 hrs. It counts as ADME, organism-based.
A short description of data set [10]: Drug concentration in DIO mouse adipose tissue at 10 mg/kg, po measured for 6 hrs. It counts as ADME, organism-based. The following applies: read-out: Drug uptake.
Data set [11] in a line: Drug concentration in DIO mouse brain at 10 mg/kg, po measured for 6 hrs. Type of data set: ADME, organism-based. The following applies: read-out: Drug uptake.
A short description of data set [12]: Drug concentration in DIO mouse brain at 10 mg/kg, po measured for 24 hrs. Type of data set: ADME, organism-based. The conditions noted are these: in vivo, po, 10 mg/kg, 24 h, BLD = below limit of detection.
A short description of data set [13]: Drug concentration in DIO mouse adipose tissue at 10 mg/kg, po measured for 6 hrs relative to plasma concentration. Type of data set: ADME, organism-based. The conditions noted are these: other tissue.
Data set [14] is described as follows: Drug concentration in DIO mouse brain at 10 mg/kg, po measured for 6 hrs relative to plasma concentration. It counts as ADME, organism-based.
Another data set has as its target hERG (Homo sapiens, UniProt Q12809). As to the kind of experiment: Inhibition of hERG at 10 uM by patch clamp assay relative to control. Type of data set: toxicity.
The nature of data set [15]: In vivo inverse agonist activity at CB1 receptor in DIO mouse assessed as efficacy at 10 mg/kg, po measured after 6 hrs. It counts as functional.
Data set [16] is described as follows: Drug concentration in DIO mouse adipose tissue assessed as fold increase at 10 mg/kg, po measured for 6 hrs relative to plasma concentration. Type of data set: ADME, organism-based. The conditions noted are these: read-out: FC.
In data set [17] the target is Voltage-gated inwardly rectifying potassium channel KCNH2 (Homo sapiens, UniProt Q12809). Kind of data set: Inhibition of hERG by patch clamp assay. Type of data set: toxicity.
Sequence of Voltage-gated inwardly rectifying potassium channel KCNH2 (Q12809 whole entry): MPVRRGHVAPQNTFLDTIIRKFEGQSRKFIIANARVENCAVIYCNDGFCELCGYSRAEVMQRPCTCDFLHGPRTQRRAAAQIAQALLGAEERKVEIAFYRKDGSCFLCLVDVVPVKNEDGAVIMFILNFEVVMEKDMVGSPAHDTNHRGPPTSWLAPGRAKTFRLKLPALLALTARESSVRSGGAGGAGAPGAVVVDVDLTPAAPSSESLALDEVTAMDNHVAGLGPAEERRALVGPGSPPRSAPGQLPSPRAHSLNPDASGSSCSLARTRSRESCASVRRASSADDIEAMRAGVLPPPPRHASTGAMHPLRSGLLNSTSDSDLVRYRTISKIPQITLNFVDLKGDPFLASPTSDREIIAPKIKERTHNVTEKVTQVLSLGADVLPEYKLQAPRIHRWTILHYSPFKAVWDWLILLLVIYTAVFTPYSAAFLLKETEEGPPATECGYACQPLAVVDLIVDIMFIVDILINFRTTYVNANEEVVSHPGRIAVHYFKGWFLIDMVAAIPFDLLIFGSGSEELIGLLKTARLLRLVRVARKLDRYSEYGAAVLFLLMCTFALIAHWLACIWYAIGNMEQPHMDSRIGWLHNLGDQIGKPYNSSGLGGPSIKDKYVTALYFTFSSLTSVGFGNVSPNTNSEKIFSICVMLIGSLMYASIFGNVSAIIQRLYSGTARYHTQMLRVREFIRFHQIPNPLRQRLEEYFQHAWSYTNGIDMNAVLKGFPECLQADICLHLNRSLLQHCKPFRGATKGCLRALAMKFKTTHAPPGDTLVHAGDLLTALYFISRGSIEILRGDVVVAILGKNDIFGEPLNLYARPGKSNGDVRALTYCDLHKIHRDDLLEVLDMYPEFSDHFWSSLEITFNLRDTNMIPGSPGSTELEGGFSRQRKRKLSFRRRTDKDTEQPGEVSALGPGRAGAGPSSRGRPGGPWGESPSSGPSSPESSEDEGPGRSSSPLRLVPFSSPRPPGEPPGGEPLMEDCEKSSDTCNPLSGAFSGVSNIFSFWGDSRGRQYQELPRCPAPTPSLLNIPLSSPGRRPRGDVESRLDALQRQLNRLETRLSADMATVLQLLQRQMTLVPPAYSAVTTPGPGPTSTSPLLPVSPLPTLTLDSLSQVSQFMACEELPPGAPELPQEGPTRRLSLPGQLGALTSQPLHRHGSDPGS

T1 sequence (P21554 whole entry): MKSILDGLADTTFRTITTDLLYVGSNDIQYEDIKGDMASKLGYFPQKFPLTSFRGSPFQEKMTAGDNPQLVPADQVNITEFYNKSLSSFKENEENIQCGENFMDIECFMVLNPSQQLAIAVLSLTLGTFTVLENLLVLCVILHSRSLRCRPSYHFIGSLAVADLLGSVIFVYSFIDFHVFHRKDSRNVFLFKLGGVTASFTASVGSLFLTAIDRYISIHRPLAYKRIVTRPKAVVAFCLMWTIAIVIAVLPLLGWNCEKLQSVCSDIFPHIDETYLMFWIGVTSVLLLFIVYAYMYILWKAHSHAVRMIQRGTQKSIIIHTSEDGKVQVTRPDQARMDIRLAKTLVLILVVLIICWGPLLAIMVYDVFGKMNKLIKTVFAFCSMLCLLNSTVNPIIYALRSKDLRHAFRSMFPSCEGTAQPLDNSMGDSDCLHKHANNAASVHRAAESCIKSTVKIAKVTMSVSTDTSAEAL
Sequence of Cannabinoid receptor 2 (P34972 whole entry): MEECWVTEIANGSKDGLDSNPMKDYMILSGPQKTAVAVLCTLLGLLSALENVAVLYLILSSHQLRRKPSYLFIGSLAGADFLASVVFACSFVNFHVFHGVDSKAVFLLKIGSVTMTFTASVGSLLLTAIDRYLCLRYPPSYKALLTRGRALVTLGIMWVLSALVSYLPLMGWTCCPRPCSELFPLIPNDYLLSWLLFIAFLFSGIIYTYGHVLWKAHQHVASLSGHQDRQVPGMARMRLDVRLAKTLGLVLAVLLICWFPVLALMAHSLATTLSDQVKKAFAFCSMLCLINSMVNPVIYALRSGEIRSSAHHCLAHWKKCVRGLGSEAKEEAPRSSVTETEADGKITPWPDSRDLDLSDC
Sequence of hERG (Q12809 whole entry): as the sequence (Q12809 whole entry) above
Sequence of CYP2C9 (P11712 whole entry): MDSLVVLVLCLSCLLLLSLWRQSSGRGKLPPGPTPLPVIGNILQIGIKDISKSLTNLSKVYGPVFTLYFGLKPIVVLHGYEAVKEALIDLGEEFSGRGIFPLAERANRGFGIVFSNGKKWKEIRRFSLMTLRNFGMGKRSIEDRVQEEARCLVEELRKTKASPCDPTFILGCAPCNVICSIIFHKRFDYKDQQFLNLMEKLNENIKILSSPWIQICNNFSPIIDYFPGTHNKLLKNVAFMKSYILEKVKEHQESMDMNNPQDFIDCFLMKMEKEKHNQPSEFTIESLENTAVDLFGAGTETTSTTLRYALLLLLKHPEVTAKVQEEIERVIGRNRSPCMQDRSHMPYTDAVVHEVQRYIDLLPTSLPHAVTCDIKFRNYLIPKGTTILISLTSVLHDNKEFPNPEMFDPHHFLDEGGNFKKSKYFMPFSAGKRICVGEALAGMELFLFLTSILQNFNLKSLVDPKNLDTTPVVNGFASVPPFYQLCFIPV

`O=C(c1nn(-c2ccccc2Cl)c(-c2ccc(Cl)cc2)c1Cc1nn[nH]n1)N1CCC(Oc2ccc(F)c(F)c2)CC1` gave a chromatographic logD in [1] of 2.5. In data set [2], this compound showed a CLH of 45 µL/min/1e6 cells. For the same compound, the inhibition at 10 µM against CYP2C9 came to 0%. In data set [3], the Activity is on record as below 2%. Further, the IC50 at Cannabinoid receptor 1 [4] was 0.035 µM; on Cannabinoid receptor 1 [5], 0.08 µM. The compound also yielded a solubility in data set [6] of 421 µM (≈ 257 µg/mL).

In the case of `O=C(O)Cc1c(C(=O)N2CCC(c3ccc(F)cc3)CC2)nn(-c2ccccc2Cl)c1-c1ccc(Cl)cc1`, the half-maximal inhibitory concentration (IC50) at Cannabinoid receptor 1 [7] was 0.018 µM; at Cannabinoid receptor 2, above 10 µM; at Cannabinoid receptor 1 [4], 0.018 µM; on Cannabinoid receptor 1 [5] it was 0.3 µM. Moreover, the chromatographic logD in data set [1] was 2.7. Further, the Activity in data set [3] was 0.2%. For the same compound, the concentration at 6 h in [8] was 9.5 µM; in [9], 9 µM; in data set [10], 0.35 µM; in [11], 0.07 µM. Further, the Drug uptake entry in [12] is recorded as “Bld”; in [13] it was 4%; in data set [14], 0.8%.

For the compound `N=C(N)Cc1c(C(=O)Nc2ccc(F)cc2)nn(-c2ccccc2Cl)c1-c1ccc(Cl)cc1`, in [1], the chromatographic logD was found to be 2.5. Further, the IC50 on Cannabinoid receptor 2 was above 10 µM.

With `NC(=O)Cc1c(C(=O)N2CCC(O)(c3ccc(F)cn3)CC2)nn(-c2ccccc2Cl)c1-c1ccc(Cl)cc1`, the CLH in data set [2] was 18 µL/min/1e6 cells. This compound showed an IC50 at Cannabinoid receptor 1 [5] of 0.0018 µM. The inhibition at 10 µM at hERG is 38%.

Take `C[C@@H](NC(=O)c1nn(-c2ccccc2Cl)c(-c2ccc(Cl)cc2)c1Cc1nn[nH]n1)c1ccc(OC(F)(F)F)cc1`: the IC50 is 0.0096 µM on Cannabinoid receptor 1 [7], above 10 µM on Cannabinoid receptor 2, 0.0048 µM on Cannabinoid receptor 1 [4] and 0.021 µM at Cannabinoid receptor 1 [5]. In addition, the chromatographic logD in data set [1] was determined as 2.9. The Activity in [3] stood at 11.8%. Also, the concentration at 6 h in [8] is 35 µM; in data set [9] it was 12 µM; in data set [10] it was 4 µM; in [11] it was 0.16 µM. In data set [14], this compound came in with a Drug uptake of 1.3%. For the same compound, the Efficacy in data set [15] was determined as 11%. Besides, the Kp at 6 h in [16] was 5.

In the case of `NC(=O)Cc1c(C(=O)N2CCC(O)(c3ccc(F)cc3)CC2)nn(-c2ccccc2Cl)c1-c1ccc(Cl)cc1`, the CLH in [2] was 8 µL/min/1e6 cells. The IC50 turned out to be 7.9 µM on Cannabinoid receptor 2, 0.0018 µM on Cannabinoid receptor 1 [4], 0.00045 µM at Cannabinoid receptor 1 [5] and 0.8 µM in data set [17]. The same compound came in with an inhibition at 10 µM against hERG of 93%.
